According to PMC10033419, “Blocking NS3–NS4B interaction inhibits dengue virus in non-human primates” (Nature, 2023):
“And” between values parts separate entries of the source, which are not always exact repeats. Identical values can stand only once.

What was measured:
[1] = test system: DENV-2 RL strain; experiment: Delayed-treatment study (therapeutic setting); type: in vivo, AG129 mice; conditions: for Viral Load Copies/ml / Viral Load Log10: 30 mg/kg/day, individual mice; for Viral (load), log10 of the column before (head empty) / Viral (load; head cut off): JNJ-1802 30 mg/kg
[2] = rhesus monkey, in vivo
[3] = start treatment day 0 p.i., blood sampling day 5 p.i.
[4] = start treatment day 0 p.i., blood sampling day 6 p.i.
[5] = start treatment day 0 p.i., blood sampling day 7 p.i.
[6] = start treatment day 0 p.i., blood sampling day 8 p.i.
[7] = start treatment day 0 p.i., blood sampling day 9 p.i.
[8] = start treatment day 4 p.i., blood sampling day 3 p.i.
[9] = start treatment day 4 p.i., blood sampling day 4 p.i.
[10] = start treatment day 4 p.i., blood sampling day 5 p.i.
[11] = start treatment day 4 p.i., blood sampling day 6 p.i.
[12] = start treatment day 4 p.i., blood sampling day 7 p.i.
[13] = start treatment day 4 p.i., blood sampling day 8 p.i.
[14] = start treatment day 4 p.i., blood sampling day 9 p.i.
[15] = start treatment day 5 p.i., blood sampling day 3 p.i.
[16] = start treatment day 5 p.i., blood sampling day 4 p.i.
[17] = start treatment day 5 p.i., blood sampling day 5 p.i.
[18] = start treatment day 5 p.i., blood sampling day 6 p.i.
[19] = start treatment day 5 p.i., blood sampling day 7 p.i.
[20] = start treatment day 5 p.i., blood sampling day 8 p.i.
[21] = start treatment day 5 p.i., blood sampling day 9 p.i.
[22] = start treatment day 0 p.i., blood day 10, individual mice, 30 mg/kg
[23] = start treatment day 0 p.i., blood day 12, individual mice
[24] = start treatment day 0 p.i., blood day 14, individual mice, 30 mg/kg
[25] = start treatment day 4 p.i., blood day 10, individual mice, 30 mg/kg
[26] = start treatment day 4 p.i., blood day 12, individual mice
[27] = start treatment day 4 p.i., blood day 14, individual mice, 30 mg/kg
[28] = start treatment day 5 p.i., blood day 10, individual mice, 30 mg/kg
[29] = start treatment day 5 p.i., blood day 12, individual mice, 30 mg/kg
[30] = start treatment day 5 p.i., blood day 14, individual mice

In the case of `COc1cc(N[C@H](C(=O)c2c[nH]c3ccc(OC(F)(F)F)cc23)c2ccc(Cl)cc2OC)cc(S(C)(=O)=O)c1` [JNJ-1802], the “Viral Load Copies/ml” value [1, 3] is reported as 4.36E+03 Copies/ml and 3.27E+03 Copies/ml and 3.93E+03 Copies/ml, the “Viral Load Log10” value [1, 3] is reported as 3.6398 Log10 and 3.5148 Log10 and 3.5940 Log10 and the “Viral Load Copies/ml” value [1, 4] is reported as 1.31E+03 Copies/ml and 2.07E+03 Copies/ml and 5.61E+03 Copies/ml. The “Viral Load Log10” value [1, 4] was 3.1169 Log10 and 3.3153 Log10 and 3.7489 Log10, the “Viral Load Copies/ml” value [1, 5] was 1.57E+03 Copies/ml and 1.64E+03 Copies/ml and 6.54E+03 Copies/ml and 9.82E+03 Copies/ml and the “Viral Load Log10” value [1, 5] was 3.8159 Log10 and 3.9919 Log10. For the same compound, the “Viral Load Copies/ml” value [1, 6] was 6.54E+03 Copies/ml and 1.96E+04 Copies/ml and 3.27E+03 Copies/ml, the “Viral Load Log10” value [1, 6] was 3.8159 Log10 and 4.2930 Log10 and 3.5148 Log10 and the “Viral Load Copies/ml” value [1, 7] was 1.31E+03 Copies/ml and 1.64E+03 Copies/ml. The “Viral Load Log10” value [1, 7] was 3.1169 Log10, the “Viral Load Copies/ml” value [1, 8] was 1.96E+04 Copies/ml and 8.52E+04 Copies/ml and 2.38E+05 Copies/ml and 1.40E+06 Copies/ml and the “Viral Load Log10” value [1, 8] was 4.2930 Log10 and 4.9304 Log10 and 5.3771 Log10 and 6.1456 Log10. The “Viral Load Copies/ml” value [1, 9] was 5.13E+06 Copies/ml and 8.56E+06 Copies/ml and 1.09E+07 Copies/ml and 3.84E+06 Copies/ml, the “Viral Load Log10” value [1, 9] was 6.7101 Log10 and 6.9324 Log10 and 7.0387 Log10 and 6.5839 Log10 and the “Viral Load Copies/ml” value [1, 10] was 1.69E+05 Copies/ml and 1.30E+06 Copies/ml and 9.49E+05 Copies/ml and 2.98E+05 Copies/ml. For the same compound, the “Viral Load Log10” value [1, 10] was 5.8093 Log10 and 5.2288 Log10 and 6.1145 Log10 and 5.9771 Log10 and 5.4737 Log10, the “Viral Load Copies/ml” value [1, 11] was 1.31E+03 Copies/ml and 2.07E+03 Copies/ml and 3.65E+04 Copies/ml and 6.54E+03 Copies/ml and the “Viral Load Log10” value [1, 11] was 4.0690 Log10 and 3.1169 Log10 and 3.3153 Log10 and 4.5619 Log10 and 3.8159 Log10. The “Viral Load Copies/ml” value [1, 12] was 1.31E+03 Copies/ml and 2.07E+03 Copies/ml and 4.29E+06 Copies/ml and 6.54E+03 Copies/ml, the “Viral Load Log10” value [1, 12] was 3.1169 Log10 and 3.3153 Log10 and 6.6320 Log10 and 3.8159 Log10 and the “Viral Load Copies/ml” value [1, 13] was 1.31E+03 Copies/ml and 1.87E+03 Copies/ml. The “Viral Load Log10” value [1, 13] was 3.1169 Log10 and 3.2718 Log10, the “Viral Load Copies/ml” value [1, 14] was 1.31E+03 Copies/ml and the “Viral Load Log10” value [1, 14] was 3.1169 Log10. The “Viral Load Copies/ml” value [1, 15] was 1.69E+06 Copies/ml and 8.64E+05 Copies/ml, the “Viral Load Log10” value [1, 15] was 6.8381 Log10 and 6.2281 Log10 and 5.9363 Log10 and the “Viral Load Copies/ml” value [1, 16] was 1.81E+06 Copies/ml and 3.46E+06 Copies/ml and 7.59E+06 Copies/ml and 4.62E+06 Copies/ml. For the same compound, the “Viral Load Log10” value [1, 16] was 6.2566 Log10 and 6.5396 Log10 and 6.8802 Log10 and 6.6643 Log10, the “Viral Load Copies/ml” value [1, 17] was 3.99E+07 Copies/ml and 1.36E+07 Copies/ml and 2.74E+07 Copies/ml and 2.11E+07 Copies/ml and 1.62E+07 Copies/ml and the “Viral Load Log10” value [1, 17] was 7.5974 Log10 and 7.1163 Log10 and 7.4220 Log10 and 7.3194 Log10 and 7.2021 Log10. For the same compound, the “Viral Load Copies/ml” value [1, 18] was 1.03E+06 Copies/ml and 1.20E+06 Copies/ml and 1.55E+06 Copies/ml and 4.56E+05 Copies/ml, the “Viral Load Log10” value [1, 18] was 6.0131 Log10 and 6.0795 Log10 and 6.1913 Log10 and 5.6591 Log10 and the “Viral Load Copies/ml” value [1, 19] was 3.15E+05 Copies/ml. For the same compound, the “Viral Load Log10” value [1, 19] was 5.4984 Log10 and 4.8630 Log10, the “Viral Load Copies/ml” value [1, 20] was 1.31E+03 Copies/ml and 1.96E+03 Copies/ml and 5.65E+04 Copies/ml and the “Viral Load Log10” value [1, 20] was 3.1169 Log10 and 3.2930 Log10 and 4.7518 Log10. The “Viral Load Copies/ml” value [1, 21] was 1.31E+03 Copies/ml and 1.37E+04 Copies/ml, the “Viral Load Log10” value [1, 21] was 3.1169 Log10 and 4.1354 Log10 and the “time until viral loads below LLOQ” value ([1]; 60 mg/kg/day b.i.d., start day 4) was ≤ 48 h. The “Viral (load), log10 of the column before (head empty)” value (“Viral (load), log10” for short) [1, 22] was 3.1169 and 3.2930, the “Viral (load; head cut off)” value [1, 22] was 1.31E+03 and 1.96E+03 and the “Viral (load), log10” value [1, 23] was 3.1169. The “Viral (load; head cut off)” value [1, 23] was 1.31E+03, the “Viral (load), log10” value [1, 24] was 3.1169 and 3.6909 and the “Viral (load; head cut off)” value [1, 24] was 1.31E+03 and 1.57E+03 and 4.91E+03. The “Viral (load), log10” value [1, 25] was 3.1468 and 3.2930 and 3.1169, the “Viral (load; head cut off)” value [1, 25] was 1.40E+03 and 1.96E+03 and 1.64E+03 and 1.31E+03 and the “Viral (load), log10” value [1, 26] was 3.1169. The “Viral (load; head cut off)” value [1, 26] was 1.31E+03, the “Viral (load), log10” value [1, 27] was 3.1169 and the “Viral (load; head cut off)” value [1, 27] was 1.31E+03 and 1.57E+03. The “Viral (load), log10” value [1, 28] was 4.0084 and 3.1169, the “Viral (load; head cut off)” value [1, 28] was 1.02E+04 and 1.31E+03 and the “Viral (load), log10” value [1, 29] was 3.1169 and 4.0709. The “Viral (load; head cut off)” value [1, 29] was 1.31E+03 and 1.18E+04, the “Viral (load), log10” value [1, 30] was 3.1169 and the “Viral (load; head cut off)” value [1, 30] was 1.31E+03. For the same compound, the haematological analysis [2] was “did not show any indication for a treatment-related effect”.
